Data from patent US10322123B2, “Compound for anti-cancer therapy that acts by targeting GOF mutant P53 and stimulates P73 to restore the P53 pathway signaling” (The Penn State Research Foundation, priority 2014, dated 2019).

Tests used:
[1] = target: T1, wild-type p53 protein epitope (Homo sapiens, UniProt P04637, R175H); test: Wild-type p53 conformation with Pab1620 antibody; type: cell-based; conditions: RXF393 cells, 24 hr
T1 construct: endogenous in cells; host or cells: RXF393
Procedure: Five hundred micrograms of cell lysate were incubated with 2 μg of antibody overnight at 4° C. Then, 25 μl of protein A-Sepharose beads were added to the lysates. The immunoprecipitated proteins were eluted from protein A-Sepharose beads by boiling with 2× sample buffer and subjected to SDS-PAGE.

MDM2 = test: Phosphorylation Western blot; type: cell-based, human; conditions: SW480 cells
Procedure: (§1) Proteins were extracted from cells and electrophoresed through 4-12% SDS-PAGE then transferred to PVDF membranes. The primary antibodies indicated in the figures were incubated with the transferred PVDF in blocking buffer at 4° C. overnight. Antibody binding was detected on PVDF with appropriate IRDye-secondary antibodies (LI-COR Biosciences, USA) by the ODYSSEY infrared imaging system.

Hop92 and SW480 cells = test: Flow cytometry sub-G1 DNA content; type: cell-based, human; conditions: 25 μM and 50 μM, 8 hours
Procedure: Cells were treated with NSC59984 or other drugs. […] The samples were then subjected to analysis by an Epics Elite flow cytometer to measure the DNA content of the stained cells.

[2] = Body weight and toxicity in xenograft mice; type: in vivo; conditions: 45 mg/kg i.p. every 5 days
Procedure: CRL nude mice (female, 4-6 weeks old) were inoculated s.c. in the opposite flanks with 5 million DLD-1 or p73 knock-down DLD-1 cells in an equal volume of martrigel. Treatment with NSC59984 (i.p. injection) was initiated when the tumor masses reached a size of 3-5 mm. NSC59984 (45 mg/kg) was injected by i.p. route every 5 days. Fifteen days after treatment, the mice were euthanized using an institutional animal care and use committee-approved animal protocol.

[3] = test system: MRC-5 normal fibroblast cells; test: CellTiter-Glo cell viability, combination with CPT-11; type: cell-based, human; conditions: for Combination index (CI): MRC, 72 hr
Procedure: (§2) Cells at a concentration of 5000 cells/well in 96-well plates were treated with NSC59984 or other drugs. At seventy-two hours after treatment, cells were mixed with an equal volume of CellTiter-Glo reagents (Promega, Madison, Wis.), following the manufacturer's protocol, and bioluminescence imaging was measured using the IVIS imager.
(§3) All results were obtained from triplicate experiments, unless other indicated. Statistical analyses were performed using PRISM4 Software (GraphPad Software, Inc., San Diego, Calif., USA), ANOVA and Student's t-test. Statistical significances were determined by p<0.05. Combination indices were calculated using the Chou-Talalay method with CalcuSyn software (biosoft).

SW480 cancer cells = test: as above; type: cell-based, human; conditions: for Combination index (CI): SW480, 72 hr
Procedure: as §2, §3

DLD-1 cells = test: Flow cytometry sub-G1 DNA content; type: cell-based, human
Procedure: Cells were treated with NSC59984 or other drugs. Seventy-two hours after treatment, the cells were fixed with ethanol and stained with Propidium Iodide (PI). The samples were then subjected to analysis by an Epics Elite flow cytometer to measure the DNA content of the stained cells.
Cells were infected with retrovirus containing the pSIREN-REtrpcQ retroviral vector recombinant with TAp73 RNAi. Cells were cultured with blasticidin for several weeks, and blasticidin-resistant clones were selected. Knock-down of p73 was detected by measuring p73 protein levels by Western blot with anti-p73 antibody (Bethyl laboratories Inc. USA).

[4] = test system: p53 transcriptional activity; test: p53-responsive luciferase reporter bioluminescence imaging; type: cell-based, human; conditions: for 1/slope of dose-dependent p53-responsive reporter bioluminescence: 24 hr
Procedure: Functional cell-based screening for small molecules that can increase p53-transcriptional activity was performed using noninvasive bioluminescence imaging in human colorectal cancer cells (SW480, DLD-1, HCT116 and p53-null HCT116) that stably express a p53-regulated reporter, as previously described (Wang W, et al., Proc Natl Acad Sci USA 2006; 103: 11003-8). Cells were seeded in 96-well plates at a density of 5×10^4 cells/well. […] Cells treated with 5 μM of Prodigiosin were used as a positive control, and DMSO treatment was used as a negative control in each screened plate. The bioluminescence in each treatment was normalized to DMSO treatment.
SW480, DLD-1, HCT116 and p53-null HCT116 cells which stably express a p53-regulated luciferase reporter were generated as previously described (Wang et al., 2006, Proc. Natl. Acad. Sci. USA 103:11003-11008; Wang et al., 2003, Cancer Biol. Ther. 2:196-202). MRCS, Wi38, Hop92 and RXF393 were obtained from ATCC and cultured as recommended. Cells were regularly authenticated by bioluminescence, growth and morphological observation.

p73 = target: T2, p73 (Homo sapiens, UniProt O15350); test: p73 protein level Western blot; type: cell-based; conditions: mutant p53-expressing tumor cells, 8 hours
T2 construct: endogenous in cells
Procedure: as §1

[5] = CPT-11 15 mg/ml, NSC59984 12 mM
[6] = CPT-11 15 mg/ml, NSC59984 25 mM
[7] = CPT-11 30 mg/ml, NSC59984 12 mM
[8] = CPT-11 30 mg/ml, NSC59984 25 mM
[9] = CPT-11 60 mg/ml, NSC59984 12 mM
[10] = CPT-11 60 mg/ml, NSC59984 25 mM
[11] = CPT-11 120 mg/ml, NSC59984 6 mM
[12] = CPT-11 120 mg/ml, NSC59984 12 mM
[13] = CPT-11 120 mg/ml, NSC59984 25 mM

T2 sequence (O15350 whole entry): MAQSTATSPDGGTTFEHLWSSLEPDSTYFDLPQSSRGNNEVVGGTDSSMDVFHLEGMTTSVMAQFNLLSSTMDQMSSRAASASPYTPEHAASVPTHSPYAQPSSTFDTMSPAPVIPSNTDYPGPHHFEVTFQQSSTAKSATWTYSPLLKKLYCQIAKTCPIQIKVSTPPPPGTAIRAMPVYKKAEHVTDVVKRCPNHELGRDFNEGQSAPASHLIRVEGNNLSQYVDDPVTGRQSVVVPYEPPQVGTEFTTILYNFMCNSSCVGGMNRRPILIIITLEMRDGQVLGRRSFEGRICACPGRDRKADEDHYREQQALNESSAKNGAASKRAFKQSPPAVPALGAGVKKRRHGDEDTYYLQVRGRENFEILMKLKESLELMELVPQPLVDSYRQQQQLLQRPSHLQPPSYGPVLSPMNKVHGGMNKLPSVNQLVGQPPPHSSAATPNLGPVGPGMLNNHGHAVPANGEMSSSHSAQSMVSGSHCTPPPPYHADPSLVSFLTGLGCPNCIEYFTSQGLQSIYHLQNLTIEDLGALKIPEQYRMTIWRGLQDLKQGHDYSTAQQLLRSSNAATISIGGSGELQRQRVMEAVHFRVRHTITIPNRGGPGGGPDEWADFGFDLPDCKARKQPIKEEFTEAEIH

For `CN1CCN(C(=O)/C=C/c2ccc([N+](=O)[O-])o2)CC1` [NSC59984, (E)-1-(4-methylpiperazin-1-yl)-3-(5-nitrofuran-2-yl)prop-2-en-1-one], the “immunohistochemistry staining with Pab1620” value [1] was “no staining”, the “immunoprecipitation of p53 protein with Pab1620 antibody” value [1] was “no p53 protein bound” and the “phosphorylation of MDM2” value (MDM2) was “phosphorylated at Ser166”. For the same compound, the “subG1 DNA-content” value (Hop92 and SW480 cells) was “nor subG1 DNA-content was increased”, the mouse body weights [2] was “did not cause an obvious change” and the “toxic effect in mice” value ([2]; tested dose) was “no overt toxic effect”. For the same compound, the “Combination index (CI)” value ([3]; CPT-11 15 mg/ml, NSC59984 50 μM) was 0.00 ± 0.00, the “Combination index (CI)” value ([3]; CPT-11 15 mg/ml, NSC59984 6 mM) was 1.06 ± 0.43 and the “Combination index (CI)” value [3, 5] was 0.91 ± 0.21. The “Combination index (CI)” value [3, 6] was 0.54 ± 0.03, the “Combination index (CI)” value ([3]; CPT-11 30 mg/ml, NSC59984 50 μM) was 0.00 ± 0.00 and the “Combination index (CI)” value ([3]; CPT-11 30 mg/ml, NSC59984 6 mM) was 0.75 ± 0.09. The “Combination index (CI)” value [3, 7] was 0.40 ± 0.07, the “Combination index (CI)” value [3, 8] was 0.12 ± 0.07 and the “Combination index (CI)” value ([3]; CPT-11 60 mg/ml, NSC59984 50 μM) was 0.00 ± 0.00. The “Combination index (CI)” value ([3]; CPT-11 60 mg/ml, NSC59984 6 mM) was 0.49 ± 0.09, the “Combination index (CI)” value [3, 9] was 0.08 ± 0.04 and the “Combination index (CI)” value [3, 10] was 0.00 ± 0.00. For the same compound, the “Combination index (CI)” value ([3]; CPT-11 120 mg/ml, NSC59984 50 μM) was 0.02 ± 0.00, the “Combination index (CI)” value [3, 11] was 0.06 ± 0.02 and the “Combination index (CI)” value [3, 12] was 0.00 ± 0.00. For the same compound, the “Combination index (CI)” value [3, 13] was 0.00 ± 0.00, the “combinational treatment with CPT11” value ([3]; normal fibroblast MRC5 cells) was “synergic activity” and the “Combination index (CI)” value (SW480 cancer cells; CPT-11 15 mg/ml, NSC59984 6 mM) was 3.01 ± 0.20. For the same compound, the “Combination index (CI)” value (SW480 cancer cells; [5]) was 2.02 ± 0.27, the “Combination index (CI)” value (SW480 cancer cells; [6]) was 0.66 ± 0.04 and the “Combination index (CI)” value (SW480 cancer cells; CPT-11 15 mg/ml, NSC59984 50 mM) was 1.00 ± 0.02. For the same compound, the “Combination index (CI)” value (SW480 cancer cells; CPT-11 30 mg/ml, NSC59984 6 mM) was 1.80 ± 0.15, the “Combination index (CI)” value (SW480 cancer cells; [7]) was 0.38 ± 0.04 and the “Combination index (CI)” value (SW480 cancer cells; [8]) was 0.65 ± 0.02. For the same compound, the “Combination index (CI)” value (SW480 cancer cells; CPT-11 30 mg/ml, NSC59984 50 mM) was 0.40 ± 0.04, the “Combination index (CI)” value (SW480 cancer cells; CPT-11 60 mg/ml, NSC59984 6 mM) was 0.64 ± 0.17 and the “Combination index (CI)” value (SW480 cancer cells; [9]) was 0.22 ± 0.03. For the same compound, the “Combination index (CI)” value (SW480 cancer cells; [10]) was 0.57 ± 0.00, the “Combination index (CI)” value (SW480 cancer cells; CPT-11 60 mg/ml, NSC59984 50 mM) was 0.41 ± 0.04 and the “Combination index (CI)” value (SW480 cancer cells; [11]) was 0.18 ± 0.01. The “Combination index (CI)” value (SW480 cancer cells; [12]) was 0.36 ± 0.08, the “Combination index (CI)” value (SW480 cancer cells; [13]) was 0.62 ± 0.05 and the “Combination index (CI)” value (SW480 cancer cells; CPT-11 120 mg/ml, NSC59984 50 mM) was 0.23 ± 0.04. For the same compound, the “cell viability, combinational treatment with CPT11” value (SW480 cancer cells; SW480 cancer cells as compared to MRC5 and Wi38 normal cells, 72 hr) was “significantly reduced”, the “combinational treatment with CPT11” value (SW480 cancer cells; SW480 colon cancer cells) was “synergic activity” and the “Sub-G1 DNA content” value (DLD-1 cells; 50 μM, 8 hours, DLD-1) was 8.2%. The “percentage of cells with sub-G1 content” value (DLD-1 cells; DLD-1 cells, 72 hr) was “increased”, the “effect on percentage of cells with sub-G1 content” value (DLD-1 cells; p73 knock-down DLD-1 cells, 72 hr) was “significantly reduced” and the “1/slope of dose-dependent p53-responsive reporter bioluminescence” value (shortened to “1/slope”) ([4]; DLD-1 (mutant p53 S241F)) was 29.75. For the same compound, the “1/slope” value ([4]; SW480 (mutant p53 R273H, P309S)) was 31.37, the p53-responsive bioluminescence ([4]; SW480 cells, 10 μM) was “increases” and the “1/slope” value ([4]; p53-null HCT116 cells) was 102.9. The p53-responsive bioluminescence ([4]; p53-null HCT116 cells, increasing doses) was “slightly induced”, the p53-responsive bioluminescence ([4]; p73-overexpressing (Ad-p73) SW480 cells vs wild-type p53-overexpressing SW480 cells, 8 hr) was “significantly increased” and the “NSC59984-induced p53-responsive bioluminescence” value ([4]; p73 knock-down SW480 cells, 8 hr) was “abrogated”. The “1/slope” value ([4]; wild-type p53-expressing HCT116 cells) was 328.4, the p53-responsive bioluminescence ([4]; wild-type p53-expressing HCT116 cells, increasing doses) was “no significant increase” and the p73 protein levels (p73) was “not found to be increased”.
